# Data reported in patent US20100222269A1, “IMPROVED DERIVATIVES OF AMYLIN” (priority 2007, published 2010).
# Starred links: 1 amine or outer side, 2 acyl side, 3 side chain; linkers in the order of their positions; H or OH if unused. Positions of bridges follow the written chain, without caps; N, C: chain ends. Residues, ends and D or L forms follow the SMILES beside them. Groups on a side chain read outwards from the residue. *: point of attachment. X1 = O=C(CCCCCCCCCCCCCCCc1nnn[nH]1)NS(=O)(=O)CCCC(=O)*; C20 diacid = O=C(O)CCCCCCCCCCCCCCCCCCC(=O)*; C18 diacid = O=C(O)CCCCCCCCCCCCCCCCC(=O)*; γGlu = O=C(O)[C@H](CCC(=O)[*:2])N[*:1]
# Biological target: T1, Amylin 3(a) receptor (human calcitonin receptor (CTa) with RAMP-3) (Homo sapiens, UniProt O60896+P30988)
# T1 construct: expressed in transfected cells; host or cells: BHK570 (baby hamster kidney) cells, stably transfected, with CRE-luciferase reporter
# Assay: Amylin luciferase assay (CRE-luciferase reporter in BHK Amylin 3(a)//CRE-luc cells)
# Format: cell-based
# Conditions: not given
# Method in brief: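 BHK570 cells stably expressing human calcitonin receptor (CTa), RAMP-3 and a CRE-luciferase reporter, about 20.000 cells/well, were exposed to standard or sample for 4 h at 37° C in phenol-red-free DMEM with 10% FBS and 10 mM Hepes pH 7,4. Luminescence was read after 30 min with LucLite at room temperature.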
# T1 sequence (O60896 24-148): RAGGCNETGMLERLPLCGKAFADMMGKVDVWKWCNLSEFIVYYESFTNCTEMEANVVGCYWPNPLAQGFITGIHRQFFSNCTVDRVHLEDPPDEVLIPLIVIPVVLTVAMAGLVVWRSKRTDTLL
# T1 sequence (P30988 25-474): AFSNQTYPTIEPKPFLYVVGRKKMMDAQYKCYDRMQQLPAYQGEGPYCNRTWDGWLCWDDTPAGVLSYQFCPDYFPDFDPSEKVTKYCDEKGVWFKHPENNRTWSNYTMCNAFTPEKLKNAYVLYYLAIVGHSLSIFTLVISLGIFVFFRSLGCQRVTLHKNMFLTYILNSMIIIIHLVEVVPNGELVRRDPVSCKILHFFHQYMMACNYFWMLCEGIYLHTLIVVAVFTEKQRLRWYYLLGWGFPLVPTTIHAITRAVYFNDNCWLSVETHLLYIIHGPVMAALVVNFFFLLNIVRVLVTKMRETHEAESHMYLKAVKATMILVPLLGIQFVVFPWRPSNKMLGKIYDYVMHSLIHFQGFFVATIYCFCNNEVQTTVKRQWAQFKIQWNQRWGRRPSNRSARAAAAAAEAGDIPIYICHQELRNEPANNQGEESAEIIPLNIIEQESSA
row,Structure (SMILES),EC50 [nM]
1,"CC(C)C[C@H](NC(=O)[C@H](CC(N)=O)NC(=O)[C@H](CCC(N)=O)NC(=O)[C@H](CO)NC(=O)[C@H](CO)NC(=O)[C@H](CCCNC(=N)N)NC(=O)[C@@H](NC(=O)[C@H](CC(C)C)NC(=O)[C@H](Cc1ccccc1)NC(=O)[C@H](CC(N)=O)NC(=O)[C@H](C)NC(=O)[C@H](CC(C)C)NC(=O)[C@H](CCCNC(=N)N)NC(=O)[C@H](CCC(N)=O)NC(=O)[C@@H](NC(=O)[C@H](C)NC(=O)[C@@H]1CSSC[C@H](NC(=O)[C@H](CCC(=O)O)NC(=O)[C@H](CCCNC(=N)N)NC(=O)[C@H](CCC(=O)O)NC(=O)[C@H](CCC(=O)O)NC(=O)CCCCCCCCCCCCCCCCCCC(=O)O)C(=O)N[C@@H](CCC(N)=O)C(=O)N[C@@H]([C@@H](C)O)C(=O)N[C@@H](C)C(=O)N[C@@H]([C@@H](C)O)C(=O)N1)[C@@H](C)O)C(C)C)C(=O)NCC(=O)N1CCC[C@H]1C(=O)N[C@H](C(=O)N[C@@H](CC(C)C)C(=O)N1CCC[C@H]1C(=O)N1CCC[C@H]1C(=O)N[C@H](C(=O)N[C@@H](CC(N)=O)C(=O)N[C@H](C(=O)NCC(=O)N[C@@H](CO)C(=O)N[C@@H](CC(N)=O)C(=O)N[C@H](C(=O)N[C@@H](Cc1ccc(O)cc1)C(N)=O)[C@@H](C)O)C(C)C)[C@@H](C)O)C(C)C [Example 35, N-alpha-(19-carboxynonadecanoyl)-Glu-Glu-Arg-[Glu1,Gln3,Arg18,Gln21,Leu23,Val26]-pramlintide (1-37)] ({C20 diacid}-EERECQTATCATQRLANFLVRSSQNLGPVLPPTNVGSNTY-NH2; disulfide 5-10; C-terminus assumed)",0.09
2,"CC[C@H](C)[C@H](NC(=O)[C@@H]1CCCN1C(=O)CNC(=O)[C@H](Cc1ccccc1)NC(=O)[C@H](CC(N)=O)NC(=O)[C@H](CC(N)=O)NC(=O)[C@H](CO)NC(=O)[C@H](CO)NC(=O)[C@H](Cc1c[nH]cn1)NC(=O)[C@@H](NC(=O)[C@H](CC(C)C)NC(=O)[C@H](Cc1ccccc1)NC(=O)[C@H](CC(N)=O)NC(=O)[C@H](C)NC(=O)[C@H](CC(C)C)NC(=O)[C@H](CCCNC(=N)N)NC(=O)[C@H](CCC(N)=O)NC(=O)[C@@H](NC(=O)[C@H](C)NC(=O)[C@@H]1CSSC[C@H](N)C(=O)N[C@@H](CCCCNC(=O)CC[C@H](NC(=O)CCCS(=O)(=O)NC(=O)CCCCCCCCCCCCCCCc2nnn[nH]2)C(=O)O)C(=O)N[C@@H]([C@@H](C)O)C(=O)N[C@@H](C)C(=O)N[C@@H]([C@@H](C)O)C(=O)N1)[C@@H](C)O)C(C)C)C(=O)N[C@@H](CC(C)C)C(=O)N1CCC[C@H]1C(=O)N1CCC[C@H]1C(=O)N[C@H](C(=O)N[C@@H](CC(N)=O)C(=O)N[C@H](C(=O)NCC(=O)N[C@@H](CO)C(=O)N[C@@H](CC(N)=O)C(=O)N[C@H](C(=O)N[C@@H](Cc1ccc(O)cc1)C(N)=O)[C@@H](C)O)C(C)C)[C@@H](C)O [Example 42, N-epsilon3-{4-carboxy-4-[4-(16-1H-tetrazol-5-ylhexadecanoylsulfamoyl)butyrylamino]butyryl}-[Lys3]-pramlintide (2-37)] (H-CK([γGlu-X1])TATCATQRLANFLVHSSNNFGPILPPTNVGSNTY-NH2; disulfide 1-6; N-terminus and C-terminus assumed)",0.04

# Same assay, conditions: BHK570 cells with human calcitonin receptor (CTa), RAMP-3 and CRE-luciferase reporter; 4 hours incubation; read-out: Potency luciferase assay
row,EC50 [nM],Structure (SMILES)
1,0.09,"CC[C@H](C)[C@H](NC(=O)[C@@H]1CCCN1C(=O)CNC(=O)[C@H](Cc1ccccc1)NC(=O)[C@H](CC(N)=O)NC(=O)[C@H](CC(N)=O)NC(=O)[C@H](CO)NC(=O)[C@H](CO)NC(=O)[C@H](Cc1c[nH]cn1)NC(=O)[C@@H](NC(=O)[C@H](CC(C)C)NC(=O)[C@H](Cc1ccccc1)NC(=O)[C@H](CC(N)=O)NC(=O)[C@H](C)NC(=O)[C@H](CC(C)C)NC(=O)[C@H](CCCNC(=N)N)NC(=O)[C@H](CCC(N)=O)NC(=O)[C@@H](NC(=O)[C@H](C)NC(=O)[C@@H]1CSSC[C@H](NC(=O)[C@H](CCC(=O)O)NC(=O)[C@H](CCCNC(=N)N)NC(=O)[C@H](CCC(=O)O)NC(=O)[C@H](CCC(=O)O)NC(=O)CCCS(=O)(=O)NC(=O)CCCCCCCCCCCCCCCc2nnn[nH]2)C(=O)N[C@@H](CC(N)=O)C(=O)N[C@@H]([C@@H](C)O)C(=O)N[C@@H](C)C(=O)N[C@@H]([C@@H](C)O)C(=O)N1)[C@@H](C)O)C(C)C)C(=O)N[C@@H](CC(C)C)C(=O)N1CCC[C@H]1C(=O)N1CCC[C@H]1C(=O)N[C@H](C(=O)N[C@@H](CC(N)=O)C(=O)N[C@H](C(=O)NCC(=O)N[C@@H](CO)C(=O)N[C@@H](CC(N)=O)C(=O)N[C@H](C(=O)N[C@@H](Cc1ccc(O)cc1)C(N)=O)[C@@H](C)O)C(C)C)[C@@H](C)O [Example 31, N-alpha-[4-(16-1H-tetrazol-5-yl-hexadecanoylsulfamoyl)-butyryl]-Glu-Glu-Arg-[Glu1]pramlintide (1-37)] (X1-EERECNTATCATQRLANFLVHSSNNFGPILPPTNVGSNTY-NH2; disulfide 5-10)"
2,2,"CC(C)C[C@H](NC(=O)[C@H](CC(N)=O)NC(=O)[C@H](CCC(N)=O)NC(=O)[C@H](CO)NC(=O)[C@H](CO)NC(=O)[C@H](CCCNC(=N)N)NC(=O)[C@@H](NC(=O)[C@H](CC(C)C)NC(=O)[C@H](Cc1ccccc1)NC(=O)[C@H](CC(N)=O)NC(=O)[C@H](C)NC(=O)[C@H](CC(C)C)NC(=O)[C@H](CCCNC(=N)N)NC(=O)[C@H](CCC(N)=O)NC(=O)[C@@H](NC(=O)[C@H](C)NC(=O)[C@@H]1CSSC[C@H](NC(=O)[C@H](CCC(=O)O)NC(=O)[C@H](CCC(=O)O)NC(=O)[C@H](CCC(=O)O)NC(=O)[C@H](CCC(=O)O)NC(=O)CCCCCCCCCCCCCCCCCCC(=O)O)C(=O)N[C@@H](CCC(N)=O)C(=O)N[C@@H]([C@@H](C)O)C(=O)N[C@@H](C)C(=O)N[C@@H]([C@@H](C)O)C(=O)N1)[C@@H](C)O)C(C)C)C(=O)NCC(=O)N1CCC[C@H]1C(=O)N[C@H](C(=O)N[C@@H](CC(C)C)C(=O)N1CCC[C@H]1C(=O)N1CCC[C@H]1C(=O)N[C@H](C(=O)N[C@@H](CC(N)=O)C(=O)N[C@H](C(=O)NCC(=O)N[C@@H](CO)C(=O)N[C@@H](CC(N)=O)C(=O)N[C@H](C(=O)N[C@@H](Cc1ccc(O)cc1)C(N)=O)[C@@H](C)O)C(C)C)[C@@H](C)O)C(C)C [Example 37, N-alpha-(19-carboxynonadecanoyl)-Glu-Glu-Glu-[Glu1,Gln3,Arg18,Gln21,Leu23,Val26]-pramlintide (1-37)] ({C20 diacid}-EEEECQTATCATQRLANFLVRSSQNLGPVLPPTNVGSNTY-NH2; disulfide 5-10)"
3,0.3,"CC[C@H](C)[C@H](NC(=O)[C@@H]1CCCN1C(=O)CNC(=O)[C@H](Cc1ccccc1)NC(=O)[C@H](CC(N)=O)NC(=O)[C@H](CC(N)=O)NC(=O)[C@H](CO)NC(=O)[C@H](CO)NC(=O)[C@H](Cc1c[nH]cn1)NC(=O)[C@@H](NC(=O)[C@H](CC(C)C)NC(=O)[C@H](Cc1ccccc1)NC(=O)[C@H](CC(N)=O)NC(=O)[C@H](C)NC(=O)[C@H](CC(C)C)NC(=O)[C@H](CCCNC(=N)N)NC(=O)[C@H](CCC(N)=O)NC(=O)[C@@H](NC(=O)[C@H](C)NC(=O)[C@@H]1CSSC[C@H](NC(=O)[C@H](CCC(=O)O)NC(=O)[C@H](CCCNC(=N)N)NC(=O)[C@H](CCC(=O)O)NC(=O)[C@H](CCC(=O)O)NC(=O)CC[C@H](NC(=O)CCCCCCCCCCCCCCCCCCC(=O)O)C(=O)O)C(=O)N[C@@H](CC(N)=O)C(=O)N[C@@H]([C@@H](C)O)C(=O)N[C@@H](C)C(=O)N[C@@H]([C@@H](C)O)C(=O)N1)[C@@H](C)O)C(C)C)C(=O)N[C@@H](CC(C)C)C(=O)N1CCC[C@H]1C(=O)N1CCC[C@H]1C(=O)N[C@H](C(=O)N[C@@H](CC(N)=O)C(=O)N[C@H](C(=O)NCC(=O)N[C@@H](CO)C(=O)N[C@@H](CC(N)=O)C(=O)N[C@H](C(=O)N[C@@H](Cc1ccc(O)cc1)C(N)=O)[C@@H](C)O)C(C)C)[C@@H](C)O [Example 38, N-alpha-[(S)-4-carboxy-4-(19-carboxynonadecanoylamino)butyryl]-Glu-Glu-Arg-[Glu1]-pramlintide (1-37)] ({C20 diacid-γGlu}-EERECNTATCATQRLANFLVHSSNNFGPILPPTNVGSNTY-NH2; disulfide 5-10; C-terminus assumed)"
4,0.06,"CC[C@H](C)[C@H](NC(=O)[C@@H]1CCCN1C(=O)CNC(=O)[C@H](Cc1ccccc1)NC(=O)[C@H](CC(N)=O)NC(=O)[C@H](CC(N)=O)NC(=O)[C@H](CO)NC(=O)[C@H](CO)NC(=O)[C@H](Cc1c[nH]cn1)NC(=O)[C@@H](NC(=O)[C@H](CC(C)C)NC(=O)[C@H](Cc1ccccc1)NC(=O)[C@H](CC(N)=O)NC(=O)[C@H](C)NC(=O)[C@H](CC(C)C)NC(=O)[C@H](CCCNC(=N)N)NC(=O)[C@H](CCC(N)=O)NC(=O)[C@@H](NC(=O)[C@H](C)NC(=O)[C@@H]1CSSC[C@H](NC(=O)[C@H](CCC(=O)O)NC(=O)[C@H](CCCNC(=N)N)NC(=O)[C@H](CCC(=O)O)NC(=O)[C@H](CCC(=O)O)NC(=O)CCCCCCCCCCCCCCCCC(=O)O)C(=O)N[C@@H](CC(N)=O)C(=O)N[C@@H]([C@@H](C)O)C(=O)N[C@@H](C)C(=O)N[C@@H]([C@@H](C)O)C(=O)N1)[C@@H](C)O)C(C)C)C(=O)N[C@@H](CC(C)C)C(=O)N1CCC[C@H]1C(=O)N1CCC[C@H]1C(=O)N[C@H](C(=O)N[C@@H](CC(N)=O)C(=O)N[C@H](C(=O)NCC(=O)N[C@@H](CO)C(=O)N[C@@H](CC(N)=O)C(=O)N[C@H](C(=O)N[C@@H](Cc1ccc(O)cc1)C(N)=O)[C@@H](C)O)C(C)C)[C@@H](C)O [Example 41, N-alpha-(17-carboxyheptadecanoyl)-Glu-Glu-Arg-[Glu1]pramlintide (1-37)] ({C18 diacid}-EERECNTATCATQRLANFLVHSSNNFGPILPPTNVGSNTY-NH2; disulfide 5-10; C-terminus assumed)"
